Source: ChEMBL document CHEMBL1777783, “The synthesis and biological evaluation of 2-amino-4,5,6,7,8,9-hexahydrocycloocta[b]thiophenes as allosteric modulators of the A1 adenosine receptor” (Bioorg Med Chem Lett, 2011)
The source made the active and inactive calls. No cut-off for these calls is given here.

What was measured:
[1] = target: T1, Adenosine receptor A1 (Homo sapiens) (UniProt P30542); experiment: Allosteric modulation at human adenosine A1 receptor expressed in CHO FlpIn cells assessed as increase in EC50 concentration of N(6)-(R-phenylisopropyl)adenosine receptor agonist-induced ERK1/2 phosphorylation at 3 uM relative to control; assay type: functional, cell-based
T1 sequence (whole entry): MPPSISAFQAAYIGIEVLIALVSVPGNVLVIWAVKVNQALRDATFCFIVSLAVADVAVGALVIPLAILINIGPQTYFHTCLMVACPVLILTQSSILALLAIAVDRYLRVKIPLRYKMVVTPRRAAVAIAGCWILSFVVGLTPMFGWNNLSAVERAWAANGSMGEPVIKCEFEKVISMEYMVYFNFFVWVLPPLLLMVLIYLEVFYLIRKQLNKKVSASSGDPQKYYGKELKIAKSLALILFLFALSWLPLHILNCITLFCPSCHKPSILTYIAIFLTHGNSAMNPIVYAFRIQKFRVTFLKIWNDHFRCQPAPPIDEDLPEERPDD

[2] = target: T1, Adenosine receptor A1 (Homo sapiens); experiment: Allosteric modulation at human adenosine A1 receptor expressed in CHO FlpIn cells assessed as increase in EC50 concentration of N(6)-(R-phenylisopropyl)adenosine receptor agonist-induced ERK1/2 phosphorylation at 10 uM relative to control; assay type: functional, cell-based
[3] = target: T1, Adenosine receptor A1 (Homo sapiens); experiment: Allosteric modulation at human adenosine A1 receptor expressed in CHO FlpIn cells assessed as increase in ERK1/2 phosphorylation at 3 to 10 uM relative to control; assay type: cell-based
[4] = target: T1, Adenosine receptor A1 (Homo sapiens); experiment: Allosteric modulation at human adenosine A1 receptor expressed in CHO FlpIn cells assessed as increase in leftward shift of N(6)-(R-phenylisopropyl)adenosine-mediated ERK1/2 phosphorylation curve at 0.1 to 10 uM; assay type: cell-based
[5] = target: T1, Adenosine receptor A1 (Homo sapiens); experiment: Binding affinity to human adenosine A1 receptor allosteric site expressed in CHO FlpIn cells; assay type: cell-based

| Activity [1] | Activity [2] | Activity [3] | Activity [4] | pKb [5] | SMILES |
| --- | --- | --- | --- | --- | --- |
| 50% | 56% | inactive | – | – | Cc1ccc(C(=O)c2c(N)sc3c2CCC3)cc1 |
| 48% | 50% | inactive | – | – | Nc1sc2c(c1C(=O)NCc1ccccc1)CCCCCC2 |
| 49% | 36% | inactive | – | – | Nc1sc2c(c1C(=O)c1ccccc1)CCCCCC2 |
| 48% | 48% | inactive | – | – | NNC(=O)c1c(N)sc2c1CCCCCC2 |
| 57% | 65% | inactive | Active | 5.07 | Nc1sc2c(c1C(=O)c1cccc(C(F)(F)F)c1)CCCCCC2 |
| 73% | 88% | Active | – | – | Nc1sc2c(c1C(=O)c1cccc(C(F)(F)F)c1)CCCC2 |
| 49% | 47% | inactive | – | – | Nc1sc2c(c1C(=O)NCc1cccc(Cl)c1)CCCCCC2 |
| 56% | 75% | inactive | – | – | Cc1ccc(C(=O)c2c(N)sc3c2CCCCCC3)cc1 |
| 56% | 63% | Active | – | – | Nc1sc2c(c1C(=O)c1ccc(Cl)cc1)CCCCCC2 |
| 52% | 51% | inactive | – | – | NNC(=O)c1c(N)sc2c1CCCCC2 |
| 75% | 98% | Active | – | – | Nc1sc2c(c1C(=O)c1cccc(C(F)(F)F)c1)CCC2 |
| 53% | 74% | inactive | – | – | Nc1sc2c(c1C(=O)c1cccc(C(F)(F)F)c1)CCCCC2 |
| 55% | 68% | inactive | – | – | Cc1ccc(C(=O)c2c(N)sc3c2CCCCC3)cc1 |
| 44% | 42% | inactive | – | – | Nc1sc2c(c1C(=O)NNc1ccccc1)CCCCC2 |
| 70% | 91% | Active | Active | 5.1 | Cc1ccc(C(=O)c2c(N)sc3c2CCCC3)cc1 |
| 48% | 48% | inactive | – | – | NC(=O)c1c(N)sc2c1CCCCCC2 |
| 47% | 50% | inactive | – | – | NC(=O)c1c(N)sc2c1CCCCC2 |
| 47% | 43% | inactive | – | – | Nc1sc2c(c1C(=O)NNc1ccccc1)CCCCCC2 |
